The text below walks through data of PubChem BioAssay (NCI).

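Interpolation was linear, between the two tested concentrations surrounding the appropriate level; five concentrations were tested over 48 hours in 96-well plates. TGI: concentration producing complete growth inhibition.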

Test systems include U251 CNS; SF-295 CNS; TK-10 renal; SN12C renal; SK-MEL-2 melanoma; COLO 205 colon; SF-539 CNS; OVCAR-8 ovarian; SNB-75 CNS; CCRF-CEM leukemia; SW-620 colon; SR leukemia; A549 NSCLC; LOX IMVI melanoma; HCC-2998 colon.
What all share (test): NCI tumour cell line growth inhibition, 48 h

On to `N#CC(NNC(=O)Cc1ccccc1)c1ccc([N+](=O)[O-])cc1` (stereo not given), for which the TGI in the assay with U251 CNS, in the assay with SF-295 CNS, in the assay with TK-10 renal, in the assay on SN12C renal, with SK-MEL-2 melanoma and in the assay on COLO 205 colon was > 100 µM throughout. In addition, the TGI with SF-539 CNS, with OVCAR-8 ovarian, in the assay with SNB-75 CNS, in the assay with CCRF-CEM leukemia, with SW-620 colon and with SR leukemia was > 100 µM throughout. The TGI in the assay with A549 NSCLC and in the assay with LOX IMVI melanoma was > 100 µM each time.

Turning to `CCc1cccc(C(C)C)c1NC(=O)/C(=N\NC(N)=O)C(C(=O)OC)c1cnc2ccccc2n1` (stereo not given), the TGI in the assay on U251 CNS, in the assay on SF-295 CNS, in the assay with TK-10 renal, in the assay on SN12C renal, in the assay on HCC-2998 colon and in the assay with SK-MEL-2 melanoma was > 100 µM each time. For the same molecule, the TGI with COLO 205 colon is 49.6 µM; with SF-539 CNS it was > 100 µM; with OVCAR-8 ovarian it was > 100 µM; with SNB-75 CNS, > 100 µM; in the assay on CCRF-CEM leukemia, > 100 µM; with SW-620 colon, > 100 µM. For the same molecule, the TGI in the assay on SR leukemia was > 100 µM; with A549 NSCLC, 76.5 µM; with LOX IMVI melanoma, > 100 µM.

With `Cc1cc(Cl)ccc1NC(=O)/C(=N\NC(C)(C)C)C(C#N)c1nc(-c2ccc([N+](=O)[O-])cc2)cs1` (stereo not given), the TGI with U251 CNS, in the assay on SF-295 CNS, in the assay with TK-10 renal, in the assay with SN12C renal, in the assay on HCC-2998 colon and in the assay with SK-MEL-2 melanoma was > 100 µM each time. Besides, the TGI with SF-539 CNS, in the assay with OVCAR-8 ovarian, in the assay on SNB-75 CNS, in the assay on CCRF-CEM leukemia, in the assay with SW-620 colon and in the assay on SR leukemia was > 100 µM each time. In addition, the TGI in the assay on A549 NSCLC and in the assay with LOX IMVI melanoma was > 100 µM throughout.

Consider `COc1cc([C@@H]2c3cc4c(cc3[C@@H](NCc3ccccc3F)C3COC(=O)[C@@H]32)OCO4)cc(OC)c1O` (stereo not given in full), for which the TGI in the assay on U251 CNS was 9.02 µM; in the assay on SF-295 CNS it was > 100 µM; in the assay on TK-10 renal, 81.4 µM; with SN12C renal, 8.08 µM; in the assay with HCC-2998 colon, 28.3 µM; in the assay on SK-MEL-2 melanoma, 49.8 µM. In addition, the TGI in the assay on COLO 205 colon is 77.4 µM; in the assay on SF-539 CNS, 16.2 µM; in the assay on OVCAR-8 ovarian, > 100 µM; in the assay on SNB-75 CNS, 42.6 µM; in the assay on CCRF-CEM leukemia, > 100 µM; in the assay on SW-620 colon, 39.1 µM. Moreover, the TGI with A549 NSCLC was 15.1 µM; with LOX IMVI melanoma, 16.7 µM.

Consider `CC1(O)CC2C(CC1SC1CC3C(CC1(C)O)C3(C)C)C2(C)C` (stereo not given), for which the TGI in the assay with U251 CNS, with SF-295 CNS, in the assay with TK-10 renal, in the assay with SN12C renal, with HCC-2998 colon and in the assay with SK-MEL-2 melanoma was > 100 µM throughout. The TGI with COLO 205 colon is > 100 µM; in the assay on SF-539 CNS it was > 100 µM; in the assay with OVCAR-8 ovarian, > 100 µM; in the assay with SNB-75 CNS it was 80.1 µM; with CCRF-CEM leukemia it was 95.9 µM; in the assay with A549 NSCLC, > 100 µM.

As for `Cc1ccc(C(=O)NC2CCCCC2)cc1N=NN(C)C`, the TGI in the assay on U251 CNS, in the assay on SF-295 CNS, with TK-10 renal, in the assay on SN12C renal, with HCC-2998 colon and in the assay with SK-MEL-2 melanoma was > 100 µM throughout. The TGI with SF-539 CNS, in the assay with OVCAR-8 ovarian, in the assay on SW-620 colon, with A549 NSCLC and with LOX IMVI melanoma was > 100 µM in each case.

Take `CCOC(=O)C(C)NC(=O)NC12CC3CC(CC(F)(C3)C1)C2` (stereo not given): the TGI with U251 CNS, in the assay with TK-10 renal, in the assay with HCC-2998 colon, with SK-MEL-2 melanoma, in the assay on COLO 205 colon and with SF-539 CNS was > 100 µM throughout. The TGI with OVCAR-8 ovarian, in the assay with SNB-75 CNS, in the assay on CCRF-CEM leukemia, with SW-620 colon, with A549 NSCLC and in the assay with LOX IMVI melanoma was > 100 µM each time.

For the molecule `O=C1/C(=C/c2ccccc2Cl)COc2ccc(Br)cc21`, the TGI with U251 CNS, in the assay on SF-295 CNS, in the assay on TK-10 renal, in the assay with HCC-2998 colon, in the assay with SK-MEL-2 melanoma and in the assay on COLO 205 colon was > 100 µM in each case. Besides, the TGI with SF-539 CNS, in the assay with OVCAR-8 ovarian, in the assay with SNB-75 CNS, in the assay with CCRF-CEM leukemia, in the assay with SW-620 colon and with A549 NSCLC was > 100 µM throughout. Also, in the assay with LOX IMVI melanoma, the TGI is > 100 µM.

For `COc1cccc(C2=NC(C(C)C)CO2)c1OC` (stereo not given), the TGI in the assay with SF-295 CNS, in the assay on TK-10 renal, with SN12C renal, with HCC-2998 colon, with SK-MEL-2 melanoma and with COLO 205 colon was > 100 µM throughout. In addition, the TGI in the assay on SF-539 CNS, in the assay with OVCAR-8 ovarian, with SNB-75 CNS, in the assay with CCRF-CEM leukemia, in the assay with SW-620 colon and in the assay with A549 NSCLC was > 100 µM in each case. Moreover, the TGI with LOX IMVI melanoma was > 100 µM.

For `CC(=O)OCC12CC(CC1OC(C)=O)c1ccccc12` (stereo not given), the TGI with U251 CNS, in the assay with SF-295 CNS, with TK-10 renal, in the assay with SN12C renal, in the assay with HCC-2998 colon and in the assay on COLO 205 colon was > 100 µM each time. In addition, the TGI with OVCAR-8 ovarian, in the assay on CCRF-CEM leukemia, in the assay on SW-620 colon, in the assay on SR leukemia, with A549 NSCLC and in the assay on LOX IMVI melanoma was > 100 µM in each case.
